According to patent US20130317073A1, “METHODS OF PEST CONTROL IN SOYBEAN” (SYNGENTA LIMITED, priority 2011, published 2013):

Tested on: Euschistus heros
Assay: Euschistus heros (neotropical brown stink bug) contact/feeding activity on sprayed soybean plants
Assay type: in vivo
Settings: 120 h, N-2 nymphs on sprayed 2 week old soybean plants, evaluation 5 days after infestation, average of two replicates, read-out: mortality and growth effects; for mortality at 3 ppm: Rate 3 ppm; for mortality at 6 ppm: Rate 6 ppm; for mortality at 12.5 ppm: Rate 12.5 ppm
Method: Euschistus heros (Neotropical Brown Stink Bug) (Contact/Feeding Activity)
2 week old soybean plants are sprayed in a turn table spray chamber with the diluted spray solutions. After drying, 2 soybean seeds are added and plants are infested with 10 N-2 nymphs of the neotropical brown stink bug Euschistus heros in plastic test boxes. Boxes are incubated in a climate chamber at 25° C. and 60% RH. Evaluation is done 5 days after infestation on mortality and growth effects. The data is an average of two replicates.

SMILES | mortality at 3 ppm [%] | mortality at 6 ppm [%] | mortality at 12.5 ppm [%]
CCCCNC(=O)c1ccc(C2=NOC(c3cc(Cl)cc(Cl)c3)(C(F)(F)F)C2)cc1C (stereo not drawn) [Compound 8] | 5 | 35 | 95
Cc1cc(C2=NOC(c3cc(Cl)cc(Cl)c3)(C(F)(F)F)C2)ccc1C(=O)NCC(=O)CC(F)(F)F (stereo not drawn) [Compound 5] | 85 | 90 | 100
Cc1cc(C2=NOC(c3cc(Cl)cc(Cl)c3)(C(F)(F)F)C2)ccc1C(=O)NCC(F)(F)F (stereo not drawn) [Compound 9] | 15 | 75 | 70
O=C(CNC(=O)c1ccc(C2=NOC(c3cc(Cl)cc(Cl)c3)(C(F)(F)F)C2)cc1)CC(F)(F)F (stereo not drawn) [Compound 7] | 5 | 20 | 60
Cc1cc(C2=NOC(c3cc(Cl)cc(Cl)c3)(C(F)(F)F)C2)ccc1C(=O)NC1CSC1 (stereo not drawn) [Compound 1] | 65 | 80 | 85
Cc1cc(C2=NOC(c3cc(Cl)cc(Cl)c3)(C(F)(F)F)C2)ccc1C(=O)NC1CS(=O)(=O)C1 (stereo not drawn) [Compound 2] | 65 | 95 | 95
Cc1cc(C2=NOC(c3cc(Cl)cc(Cl)c3)(C(F)(F)F)C2)ccc1C(=O)NC1(C)CSC1 (stereo not drawn) [Compound 3] | 0 | 20 | 75
O=C(CNC(=O)c1ccc(C2=NOC(c3cc(Cl)cc(Cl)c3)(C(F)(F)F)C2)c2ccccc12)CC(F)(F)F (stereo not drawn) [Compound 6] | 95 | 100 | 95
COC(=O)N1CC(NC(=O)c2ccc(C3=NOC(c4cc(Cl)cc(Cl)c4)(C(F)(F)F)C3)cc2C)C1 (stereo not drawn) [Compound 4] | 15 | 25 | 35
